Source: patent publication US20060167026A1, “Antipsychotic molecular-targeting epithelial growth factor receptor” (Hiroyuki Nawa, priority 2003, published 2006)

How the values were obtained:
[1] = test system: rat model for cognitive dysfunction (EGF administered to neonatal rats); assay: latent inhibition in two-way active avoidance, neonatally EGF-treated rat model; type: in vivo
Description: The rat model for cognitive/behavioral dysfunction was prepared as EGF was administered to neonatal rats as described in the method of Experiment 1. SD rats were subjected to the two-way active avoidance task in an automated shuttle box (Muromachi-kiki, Tokyo, Japan) on postnatal weeks 6-8. The conditioned stimulus (CS) was an 80-dB tone and house light on and off. Rats learned the following task: When the CS was on, the animals had to cross to the other side of the shuttle box apparatus (avoidance response) in order to turn the CS off and avoid the appearance of the unconditioned stimulus (US). […] Rats were given 6 sessions of two-way active-avoidance conditioning (10 trials per session)(total 60 trials). Active-avoidance learning was evaluated by scoring the number of avoidance rate to CS.
Before this learning test was conducted, the CS of an 80-dB tone and house light had been given to normal rats without delivering US (pre-conditioning), following avoidance learning was impaired in these rats (FIG. 5 top; open circle). This is latent inhibition that represents the effect of the pre-exposure of a conditioned stimulus (CS, e.g. tone), preventing the learning of unconditioned stimulus (Russig H et al. Neuropsychopharmacology 26: p 765-777 (2002)).
When the rat model for cognitive/behavioral dysfunction, which is described in the Experiment 1, was exposed to the pre-conditioning. […] Such persistency can be inducible with hallucinogens such as cocaine (Murphy, C. A. et al. Behav Pharmacol. 12:p 13-23 (2001)).

[2] = test system: rats to which EGF was administered as neonates (model for cognitive dysfunction); assay: prepulse inhibition of acoustic startle in rats to which EGF was administered as neonates; type: in vivo, rat
Description: Newborn Sprague-Dawley (SD) rats were purchased from SLC (Shizuoka, Japan). Recombinant human EGF (Higeta-Syoyu Co, Chiba Japan) and cytochrome c (Sigma Chemical Co; control) were dissolved in physiologic saline. These agents were administered subcutaneously to rat pups on postnatal days 2, 4, 6, 8, and 10 at the nape of the neck at a dose of 1.75 μg of 1 g body weight).
Acoustic startle amplitudes and PPI responses were measured in a startle reaction chamber for small animals (SR-Lab Systems, San Diego Instruments, San Diego, Calif.) from postnatal week 3. Acoustic startle was induced with acoustic stimuli (120 dB), in combination with three different prepulse intensities of 5-, 10-, and 15-dB-above background noise (75, 80, 85 dB). The 120 dB pulse was followed 100 ms after one of the prepulses was given. Each rat was placed in the startle chamber and initially acclimatized for 5 min with background noise alone. Prepulse inhibition (PPI) of a startle response was calculated as: 100−[(startle response on prepulse pulse stimulus trials−no stimulus trials)/(pulse alone trials−no stimulus trials)×100].
SD rats treated with EGF or cytochrome c (control) were tested on postnatal days 56-66. […] The same concentration of DMSO solution was used as a control.
After anesthesia, a 28 gauge cannula was inserted into the site of rat skull (0.3 mm anterior and 1.2 mm right lateral measured from the bregma, 4.5 mm below the skull) and glued to the skull with dental cement. The end of cannula was connected to an osmotic minipump (250 μl, effective for 14 days model 2002; Azla Corp.) via vinyl tubing. Pumps were implanted subcutaneously in the nape of the neck. […] The scalp incision was closed with surgical suture and staples, and rats were maintained to wait recovery from the operation.
Seven days after administration, prepulse inhibition of the rats was monitored with 85 dB prepulse intensity using the acoustic startle measurement chamber for small animals (SR-Lab Systems, San Diego Instruments, San Diego, Calif.).

COc1cc2ncnc(Nc3ccc(F)c(Cl)c3)c2cc1OCCCN1CCOCC1 [Compound B, 4-(3-chloro4-fluoroanilino)-7-methoxy-6-(3-morphorinopropoxy) quianozoline]
learning ability of treated model rats relative to normal controls ([1]; EGF model rats, pre-conditioned, two-way active avoidance): indistinguishable from that of normal controls | effect on abnormal increase in latent inhibition ([1]; EGF model rats, pre-conditioned, two-way active avoidance, intraventricular minipump): significantly exert an ameliorative effect on abnormal increase in latent inhibition | learning ability in conditioned avoidance learning ([1]; both normal control rats and model rats, after administration): exhibited better learning ability | difference in prepulse inhibition between treated model rats and control animals ([2]; EGF model rats, intraventricular minipump 1 mg/ml, day 7, 85 dB prepulse): no significant differences | effect on abnormal decrease in prepulse inhibition ([2]; EGF model rats, intraventricular osmotic minipump 1 mg/ml, seven days after administration, 85 dB prepulse, compared to solvent-injected group): significantly ameliorated the abnormal decrease in prepulse inhibition | effect on prepulse inhibition in normal control rats ([2]; normal control rats, intraventricular minipump 1 mg/ml, day 7, 85 dB prepulse): had no effects in prepulse inhibition
